Measured values from patent publication US20100240604A1, “PROTECTED NUCLEOTIDE ANALOGS” (Alios BioPharma, Inc., priority 2009, published 2010).

What was measured:
[1] = Cytotoxicity by neutral red dye uptake assay in the HCV replicon cultures; format: cell-based; conditions: human; 2-fold depression of neutral red dye uptake relative to untreated cultures; daily treatment for three days, assessed at 72 hours
Description: (§1) Antiviral activity of the test compounds was assessed (Okuse, et al., Antivir. Res. (2005) 65:23) in the stably HCV RNA-replicating cell line, AVA5 (genotype 1b, subgenomic replicon, Blight, et al., Sci. (2000) 290:1972). Compounds were added to dividing cultures daily for three days. Cultures generally start the assay at 30-50% confluence and reach confluence during the last day of treatment. Intracellular HCV RNA levels and cytotoxicity were assessed 72 hours after treatment.
(§2) Quadruplicate cultures for HCV RNA levels and cytoxicity (on 96-well plates) were used. A total of 12 untreated control cultures, and triplicate cultures treated with α-interferon (concentrations of: 10 IU/mL, 3.3 IU/mL, 1.1 IU/mL and 0.37 IU/mL) and 2′C-Me-C (concentrations of: 30 μM, 10 μM, 3.3 μM and 1.1 μM) served as assay controls.
(§3) Intracellular HCV RNA levels were measured using a conventional blot hybridization method, in which HCV RNA levels are normalized to the levels of β-actin RNA in each individual culture (Okuse, et al., Antivir. Res. (2005) 65:23). Cytotoxicity was measured using an established neutral red dye uptake assay (Korba and Gerin, Antivir. Res. (1992) 19:55; Okuse, et al., Antivir. Res. (2005) 65:23). HCV RNA levels in the treated cultures are expressed as a percentage of the mean levels of RNA detected in untreated cultures. The absorbance of the internalized dye at […] (A510) was used for quantitative analysis.
(§4) Compounds were dissolved in 100% tissue culture grade DMSO (Sigma, Inc.) at 10 mM. Aliquots of test compounds sufficient for one daily treatment were made in individual tubes and all material was stored at −20° C. For the test, the compounds were suspended into culture medium at room temperature, and immediately added to the cell cultures. Compounds were analyzed separately in two groups with separate assay controls. […]
(§5) Values presented (±standard deviations [S.D.]) were calculated by linear regression analysis using data combined from all treated cultures. S.D. was calculated using the standard error of regression generated from the linear regression analyses (QuattroPro™). EC50 and EC90, drug concentrations at which a 2-fold, or a 10-fold depression of HCV RNA (relative to the average levels in untreated cultures), respectively, were observed; CC50, drug concentrations at which a 2-fold depression of neutral red dye uptake (relative to the average levels in untreated cultures) were observed.

[2] = system: HCV RNA-replicating cell line, AVA5 (genotype 1b, subgenomic replicon); assay: HCV replicon assay: intracellular HCV RNA levels by blot hybridization; format: cell-based, HCV genotype 1b; conditions: for EC50: 2-fold depression of HCV RNA relative to untreated cultures; for EC50 / EC90: normalized to β-actin RNA, daily treatment for three days, assessed at 72 hours; for EC90: 10-fold depression of HCV RNA relative to untreated cultures; for Antiviral activity (in words): results in Table 1
Description: as §1, §2, §3, §4, §5

AVA5 cell line = assay: Cytotoxicity by neutral red dye uptake assay in the HCV replicon cultures; format: cell-based; conditions: 2-fold depression of neutral red dye uptake relative to untreated cultures; daily treatment for three days, assessed at 72 hours
Description: as §1, §2, §3, §4, §5

SMILES	CC50 at 72 h [1] [µM]	EC50 ([2]; Hepatitis C virus, Ava5) [µM]	EC90 ([2]; Hepatitis C virus, Ava5) [µM]	Antiviral activity (in words) [2]	CC50 (AVA5 cell line) [µM]	EC50 [2] [µM]	EC90 [2] [µM]
COC(=O)[C@H](C)NP(=O)(OC[C@H]1O[C@@H](n2cnc(C(N)=O)n2)[C@@H](O)C1O)Oc1ccccc1 (stereo partly drawn) [Compound 9]	> 100	> 100	> 100	inactive			
CCOC(=O)C(COC(C)=O)(COP(=O)(N[C@@H](C)C(=O)OC)OC[C@H]1O[C@@H](n2cnc(C(N)=O)n2)[C@H](O)[C@@H]1O)C(=O)OCC (stereo partly drawn) [Compound 10]				showed activity	> 100	8.7	54
CCOC(=O)C(COC(C)=O)(COP(=O)(OC[C@H]1O[C@@H](n2cnc(C(N)=O)n2)C(O)C1O)OCC(COC(C)=O)(C(=O)OCC)C(=O)OCC)C(=O)OCC (stereo partly drawn) [Compound 11, Ribavirin 5′-bis[3-acetyloxy-2,2-bis(ethoxycarbonyl)propyl]phosphate]	9.7 ± 0.2	1.6 ± 0.2	4.4 ± 0.4	showed activity			
C[C@@]1(O)[C@H](O)[C@@H](CO)O[C@H]1n1ccc(N)nc1=O [Compound 12a, 2′-β-methylcytidine, reference compound]					> 100	1.6	5.9
COC(=O)[C@H](C)NP(=O)(OC[C@H]1O[C@@H](n2ccc(N)nc2=O)[C@H](OC)[C@@H]1O)Oc1ccccc1 (stereo partly drawn) [Compound 13, 2′-O-Methylcytidine 5′-[O-phenyl-N-(S-2-methoxy-1-methyl-2-oxoethyl)]phosphoramidate]					> 100	> 100	> 100
